Experiment: mn = molality of the nth substance listed, in mol/kg
Settings: 101 kPa, Liquid; for speed of sound: Sing-around technique in a fixed-path interferometer; for molar conductivity: digital conductivity meter

O=P([O-])([O-])[O-].[Na+].[Na+].[Na+] [trisodium phosphate] + O
Settings	mass density, 283.15 K [kg/m3]	mass density, 288.15 K [kg/m3]	molar conductivity, 283.15 K [S·m2/mol]	molar conductivity, 288.15 K [S·m2/mol]	molar conductivity, 293.15 K [S·m2/mol]	speed of sound, 283.15 K [m/s]	speed of sound, 288.15 K [m/s]	speed of sound, 293.15 K [m/s]
m1 = 0.0026	–	–	0.0382	0.0395	0.0406	–	–	–
m1 = 0.0039	–	–	0.0361	0.0369	0.0379	–	–	–
m1 = 0.0053	–	–	0.0348	0.0363	0.038	–	–	–
m1 = 0.0089	1001.51	1000.88	–	–	–	1450.7	1469	1485.1
m1 = 0.0105	1001.84	1001.2	0.0306	0.0325	0.0342	1451.2	1469.5	1485.6
m1 = 0.0116	1002.06	1001.42	–	–	–	1451.5	1469.8	1486
m1 = 0.0132	1002.38	1001.74	0.0293	0.0318	0.0333	1452	1470.2	1486.3
m1 = 0.0183	1003.44	1002.77	0.0275	0.0292	0.0309	1453.4	1471.6	1487.7
m1 = 0.0234	1004.45	1003.77	0.0259	0.0281	0.0297	1455	1473.1	1489.2
m1 = 0.0342	1006.62	1005.91	0.0234	0.0253	0.0264	1457.8	1475.8	1491.8
m1 = 0.045	1008.77	1008.04	0.0218	0.0236	0.0249	1460.7	1478.6	1494.5
m1 = 0.0563	1011	1010.23	0.0211	0.0223	0.0236	1463.6	1481.5	1497.3
m1 = 0.0662	1012.94	1012.15	0.0197	0.0216	0.0227	1466.1	1483.9	1499.7
m1 = 0.0767	–	–	0.0192	0.021	0.0218	–	–	–
m1 = 0.088	1017.25	1016.4	0.0186	0.0199	0.0209	1471.7	1489.3	1504.9
m1 = 0.0968	1018.97	1018.1	0.0179	0.0196	–	1473.9	1491.5	1507
m1 = 0.1086	1021.25	1020.35	0.0178	0.0191	–	1476.8	1494.3	1509.7
m1 = 0.1133	1022.18	1021.28	0.0173	0.0188	–	1477.9	1495.4	1510.8
m1 = 0.1296	1025.36	1024.4	0.0166	0.0181	–	1482	1499.3	1514.6
m1 = 0.141	1027.58	1026.61	0.0161	0.0175	–	1484.8	1502.1	1517.3
m1 = 0.1515	1029.56	1028.56	0.0158	0.0174	–	1487.3	1504.5	1519.7
m1 = 0.1638	1031.95	1030.93	0.0159	0.0174	–	1490.3	1507.4	1522.5
m1 = 0.1755	1034.17	1033.12	0.0155	0.0168	–	1493.1	1510.1	1525.2
m1 = 0.1868	1036.39	1035.32	0.0153	0.0165	–	1496	1512.9	1527.8
m1 = 0.1954	1037.96	1036.87	0.0154	0.0162	–	1498	1514.8	1529.7
m1 = 0.2224	1043.23	1042.08	0.0145	0.0153	–	1504.6	1521.3	1536
m1 = 0.2333	1045.32	1044.14	0.0143	0.0152	–	1507.2	1523.9	1538.5
m1 = 0.2509	1048.59	1047.38	0.0142	0.015	–	1511.4	1527.9	1542.4

Reference: the NIST ThermoML archive (doi:10.1016/j.fluid.2008.01.004)
